Legend:
[1] = isobaric coefficient of expansion; conditions: 298.15 K; 101.33 kPa; Liquid; vibrating tube densimeter
[2] = 298.15 K, 101.33 kPa, Liquid; for viscosity: Capillary tube (Ostwald / Ubbelohde) method
[3] = xn = mol fraction of the nth substance listed; conditions: 298.15 K, 101 kPa, Liquid

CCCCCCCCCC [decane]
Conditions	isobaric coefficient of expansion	mass density [kg/m3]	viscosity [mPa·s]
[1]	0.00104 1/K	–	–
[2]	–	726.29	0.861

CCCCCCCCCC [decane] + Cc1ccccc1
[3]
Conditions	mass density [kg/m3]
x2 = 0.0405	730.61
x2 = 0.1975	740.67
x2 = 0.2817	747.82
x2 = 0.3619	755.75
x2 = 0.4394	764.48
x2 = 0.6	785.86
x2 = 0.6811	798.34
x2 = 0.7615	811.84
x2 = 0.84	826.07
x2 = 0.92	841.69

CCCCCCC [heptane]
Conditions	isobaric coefficient of expansion	mass density [kg/m3]	viscosity [mPa·s]
[1]	0.00124 1/K	–	–
[2]	–	679.69	0.395

CCCCCC [hexane]
Conditions	isobaric coefficient of expansion	mass density [kg/m3]	viscosity [mPa·s]
[1]	0.00138 1/K	–	–
[2]	–	655.07	0.295

CCCCCC [hexane] + Cc1ccccc1
[3]
Conditions	mass density [kg/m3]
x2 = 0.0406	657.47
x2 = 0.2028	690.93
x2 = 0.2804	706.95
x2 = 0.3596	723.29
x2 = 0.4423	740.35
x2 = 0.5997	772.81
x2 = 0.6757	788.5
x2 = 0.7597	805.83
x2 = 0.8412	822.63
x2 = 0.9199	838.87

CCCCCCCCC [nonane]
Conditions	isobaric coefficient of expansion	mass density [kg/m3]	viscosity [mPa·s]
[1]	0.00108 1/K	–	–
[2]	–	714.01	0.665

CCCCCCCCC [nonane] + Cc1ccccc1
[3]
Conditions	mass density [kg/m3]
x2 = 0.0396	719.17
x2 = 0.1938	731.3
x2 = 0.2815	739.97
x2 = 0.3621	749.08
x2 = 0.4429	759.3
x2 = 0.6	782.29
x2 = 0.6627	792.62
x2 = 0.7595	809.87
x2 = 0.8399	825.37
x2 = 0.9168	841.23

CCCCCCCC [octane]
Conditions	isobaric coefficient of expansion	mass density [kg/m3]	viscosity [mPa·s]
[1]	0.00115 1/K	–	–
[2]	–	698.59	0.514

CCCCCCCC [octane] + Cc1ccccc1
[3]
Conditions	mass density [kg/m3]
x2 = 0.0398	692.41
x2 = 0.1999	718.64
x2 = 0.2791	731.62
x2 = 0.3596	744.8
x2 = 0.4416	758.23
x2 = 0.6048	784.96
x2 = 0.6825	797.69
x2 = 0.7593	810.27
x2 = 0.8463	824.52
x2 = 0.9132	835.49

CCCCC [pentane]
Conditions	isobaric coefficient of expansion	mass density [kg/m3]	viscosity [mPa·s]
[1]	0.0016 1/K	–	–
[2]	–	621.22	0.216

CCCCC [pentane] + Cc1ccccc1
[3]
Conditions	mass density [kg/m3]
x2 = 0.0415	629.87
x2 = 0.2011	668.27
x2 = 0.2799	687.21
x2 = 0.3647	707.61
x2 = 0.4341	724.3
x2 = 0.6011	764.45
x2 = 0.6821	783.95
x2 = 0.7502	800.32
x2 = 0.8213	817.43
x2 = 0.9137	839.65

Cc1ccccc1 [toluene]
Conditions	isobaric coefficient of expansion	mass density [kg/m3]	viscosity [mPa·s]
[1]	0.00109 1/K	–	–
[2]	–	862.19	0.552

Cc1ccccc1 [toluene] + CCCCCCC
[3]
Conditions	mass density [kg/m3]
x1 = 0.0398	678.24
x1 = 0.1999	693.04
x1 = 0.2791	721.62
x1 = 0.3596	736.18
x1 = 0.4416	764.46
x1 = 0.6048	779.21
x1 = 0.6825	793.71
x1 = 0.7593	808.12
x1 = 0.8463	823.09
x1 = 0.9132	837.25
